Here are results for 4 compounds from patent US20230102483A1, “[6R]-MTHF IN 5-FU BASED CHEMOTHERAPY OF LEFT-SIDED COLORECTAL CANCER” (Isofol Medical AB, priority 2021, published 2023).

SMILES strings stand for the structures. A value given as a limit tells only on which side of the number the result lay.

For series [1] the following is noted: cited from earlier work.
The conditions of series [2]: leucovorin vs levoleucovorin; cited from earlier work.
Series [3] has as its system metastatic colorectal cancer tumors (Stadium IV CRC patients). In words: Clinical Study ISO-CC-005 (Phase I/IIa) safety extension cohorts and Follow-up study: tumour response by CT/MRI per RECIST 1.1. It is filed as in vivo, human. From the text: As used herein, the term ORR shall refer to the Objective Response Rate, ie. the proportion of patients with reduction in tumor burden of a predefined amount. […] (Note: the appearance of one or more new lesions is also considered progression). […] Shortly after, applicant started two additional treatment groups in 2018 to generate more safety and efficacy data, i.e. the safety extension Cohort #18 (Treatment Arm #4) and Cohort #19 (Treatment Arm #6). The aim was to evaluate as many patients as possible from the additional treatment groups after a treatment period of 16 weeks or more. On 30 Sep. 2020, applicant announced response assessment data from the two safety extension cohorts (31 patients) treated for 16 weeks or longer (press release: 55% Overall Response Rate on the safety extension cohorts of the ISO-CC-005 Phase I/IIa study|BioSpace). […] These patients had been treated with the selected dose regimen of 120 mg/m2 arfolitixorin and 5-fluorouracil (5-FU) with either irinotecan or oxaliplatin ([…]). Out of the 31 patients, 17 were treated with an ARFOX regimen. Clinical Study ISO-CC-005 was an exploratory, Phase I/II multiple-centre study to be carried out in Stadium IV CRC patients. The study was designed to show clinical relevance for patients by characterizing the tolerability of four arfolitixorin dose levels (30, 60, 120, and 240 mg/m2) in six different standard clinical settings in the presence of fixed doses of 5-FU alone or in combination with either oxaliplatin, irinotecan, or oxaliplatin and bevacizumab. [table] The study was divided in the Main Study and the Follow-up Study. In the Main Study, patients received study treatment with arfolitixorin during eight weeks. Patients eligible for the Follow-up study could participate until reaching progress, but no longer than 18 months. […] The goal with the Dose-finding part of the Main Study was to establish the arfolitixorin dose level assessed as having the most favourable profile, i.e. the selected phase 2 dose (SP2D). […] Response was measured in short- and long-term assessments. […]

Turning to `Nc1nc(=O)c2c([nH]1)NC[C@H](CNc1ccc(C(=O)N[C@@H](CCC(=O)O)C(=O)O)cc1)N2C=O` [1-LV], the metabolic conversion entry in series [1] (In vitro) was “rapidly converted to the biologically available methyl-tetrahydrofolate form”. Moreover, the pharmacokinetic comparison entry in series [2] was “pharmacokinetically identical”.

Consider `Nc1nc2c(c(=O)[nH]1)N(C=O)C(CNc1ccc(C(=O)N[C@@H](CCC(=O)O)C(=O)O)cc1)CN2` (stereo partly shown) [Leucovorin, 5-formyl tetrahydrofolic acid], for which, in series [2], the pharmacokinetic comparison result is recorded as “pharmacokinetically identical”.

As for `Nc1nc2c(c(=O)[nH]1)N1CN(c3ccc(C(=O)N[C@@H](CCC(=O)O)C(=O)O)cc3)C[C@H]1CN2` [[6R]-5,10-MTHF, [6R]-5,10-methylenetetrahydrofolate], in series [3] (ISO-CC-005, treatment period of at least 8 weeks), the “progression of tumors between 8 and 16 weeks after initiating treatment” value was “No statistically significant progression”. Further, in series [3] (left-sided or rectal primary tumor (18 patients), 16 weeks and beyond, 120 mg/m2 arfolitixorin), the “best ORR, patients diagnosed with LCRC or RCA” value was greater than 60%. Also, the “best ORR, only LCRC (without the rectal cases)” value in series [3] (left-sided primary tumor (13 patients), 16 weeks and beyond, 120 mg/m2 arfolitixorin) was roughly 70%.

Consider `Nc1nc2c(c(=O)[nH]1)N(C=O)[C@H](CNc1ccc(C(=O)N[C@@H](CCC(=O)O)C(=O)O)cc1)CN2` [d-LV], for which the excretion entry in series [1] (kidneys) is given as “slowly excreted by the kidneys”.
